Data published in patent US12527788B2, “Defining RNA-small molecule affinity landscapes enables design of a small molecule inhibitor of an oncogenic non-coding RNA” (University of Florida Research Foundation, Incorporated, priority 2017, dated 2026).

Key:
[1] = tested on: 5′GAU/3′C_A (A bulge of pre-miR-18a); experiment: HiT-StARTS Fitness Score, 3×2 ILL selection; type: binding, human; conditions: Zobs normalized to most significant binder
From the text: (§1) Additionally, Zobs Rank (and by analogy Zobs) can also be used to estimate the affinities of binding interactions (FIG. 5). Single exponential curves with an asymptote defined a correlation between Zobs and experimentally determined Kd for each compound and its cognate RNA motifs. In all cases, there is excellent correlation with R values ranging from 0.86 to 0.96. These scoring functions can provide a means to rapidly profile small molecules for binding to an “on-” and “off-” targets, as mentioned above. Zobs values were normalized to the most statistically significant RNA binder (100% Fitness) to afford Fitness Scores.
(§2) To test the general applicability of these approaches to other RNA motif libraries, we used 2DCS to select RNA motifs derived from a 3×2 internal loop library (3×2 ILL) that bind to small molecules 1-8. […] That is, selective binders have Zobs>8 (p<0.0001) and relative Zobs defined a scoring function for the selected RNA motif-small molecule interactions.
(§3) These studies identified that compound 4 bound with 100% Fitness to the 5′ G_U/3′CUA (one nucleotide U bulge) that is present in the Dicer processing sites of three microRNAs (miRNAs) in the oncogenic miR-17-92 cluster (contains six mature miRNAs),^43 miR-17, -18a, and -20a. […] The binding affinity of 4 for RNAs containing these three bulges was measured (FIG. 7).
(§4) Calculating Statistical Significance (Zobs) for Selected RNAs: To determine if the difference in frequency for given RNA in the starting library and in the selection was statistically significant, a pooled population comparison (Zobs) was calculated using equations (1) and (2):
(§5) [formula] […] Where n1 is the size of population 1 (number of reads for a selected RNA); n2 is the size of population 2 (number of reads for the same RNA from sequencing of the starting library); p1 is the observed proportion of population 1 (number of reads for a selected RNA divided by the total number of reads); p2 is the observed proportion for population 2 (number of reads for the same RNA divided by the total number of reads in the starting library).

[2] = tested on: 5′GGU/3′C_A (G bulge of pre-miR-17 and pre-miR-20a); experiment: HiT-StARTS Fitness Score, 3×2 ILL selection; type: binding, human; conditions: Zobs normalized to most significant binder
From the text: as §1, §2, §3, §4, §5

[3] = tested on: 5′G_U/3′CUA (one nucleotide U bulge); experiment: HiT-StARTS Fitness Score, 3×2 ILL selection; type: binding, human; conditions: Zobs normalized to most significant binder
From the text: as §1, §2, §3, §4, §5

STK4 protein = experiment: Western blotting of STK4 in DU145 cells; type: cell-based; conditions: 20 μM
Experimental: A previous study has shown that miR-18a represses serine/threonine protein kinase 4 (STK4) protein, a tumor suppressor, in prostate cancer cells and promotes tumorigenesis.^45 Thus, we studied the ability of compound 4 to de-repress STK4 and trigger apoptosis. Treatment of DU145 cells with 20 μM of 4 increases levels of STK4 by 2.5-fold (FIG. 9A).
Western Blotting: Cells were grown in 6-well plates to ˜80% confluency in complete growth medium and then incubated with 10 or 20 μM of 4 for 48 h. Total protein was extracted using M-PER Mammalian Protein Extraction Reagent (Pierce Biotechnology) per the manufacturer's recommended protocol. Extracted total protein was quantified using a Micro BCA Protein Assay Kit (Pierce Biotechnology). […]
The membrane was briefly washed with 1× Tris-buffered saline (TBS; 50 mM Tris-CI, pH 7.5. 150 mM NaCl) and blocked with 5% milk in 1×TBST (1×TBS containing 0.05% Tween-20) for 1 h at room temperature. […] After washing with 1×TBST, protein expression was quantified using SuperSignal West Pico Chemiluminescent Substrate (Pierce Biotechnology) per the manufacturer's protocol.
The membrane was then stripped using 1× Stripping Buffer (200 mM glycine, 1% Tween-20 and 0.1% SDS, pH 2.2) followed by washing in 1×TBST. […] ImageJ software from the National Institutes of Health was used to quantify band intensities.

pre-miR-17 = experiment: Chem-CLIP in DU145 cell lysates; type: binding, human; conditions: 10 μM, DU145 cell lysate
Experimental: (§6) Chem-CLIP in Cell Lysates: DU145 cells were cultured as described above in 100 mm dishes and lysed with 500 μL of Cell Lysis Buffer (10 mM Tris pH 7.4, 0.25% Igepal CA-630 and 150 mM NaCl) for 5 min at room temperature. The cell lysate was then centrifuged and the supernatant collected. Next, 10 μM of 4 was added to the lysate in 1×PBS and the sample was incubated for 2 h at room temperature. The reaction was then directly used for pull-down by incubating with 50 μL of streptavidin resin in 1×PBS for 30 min at room temperature. […] RNA was eluted from the streptavidin beads by incubation with 100 μL of 1× Elution Buffer (10 mM EDTA and 95% formamide) at 65° C. for 20 min. The eluted RNA was cleaned up using a Quick-RNA Miniprep Kit (Zymo) per the manufacturer's protocol. RT-qPCR was completed as described above using 50 ng of total RNA in the RT reaction. Expression levels were normalized to 18S rRNA.

pre-miR-18a = experiment: Chem-CLIP in DU145 cell lysates; type: binding, human; conditions: 10 μM, DU145 cell lysate
Experimental: as §6

pre-miR-20a = experiment: Chem-CLIP in DU145 cell lysates; type: binding, human; conditions: 10 μM, DU145 cell lysate
Experimental: as §6

[4] = tested on: other miRNAs studied (of the 33 with potential binding sites); experiment: Chem-CLIP in DU145 cell lysates; parameters: species or system human; conditions: 10 μM, DU145 cell lysate
Experimental: as §6

CN1CCN(c2ccc(-c3ccc4nc(-c5cc(C(C)(C)C)c(OCCCC(=O)NCCCN=[N+]=[N-])c(C(C)(C)C)c5)[nH]c4c3)cc2)CC1 [Compound 4]
Fitness [1]: 91%
Fitness [2]: 78%
Fitness [3]: 100%
Increase of STK4 levels (STK4 protein): 2.5 fold
Enrichment in pulled-down fraction (pre-miR-17): ~2 fold
Enrichment in pulled-down fraction (pre-miR-18a): ~4 fold
Enrichment in pulled-down fraction (pre-miR-20a): ~2 fold
Enrichment in pulled-down fraction [4]: no enrichment
